Data: publication PMC12402854 (Angewandte Chemie (International Ed. in English), 2025)

Biological target: T1, Xeroderma pigmentosum type B (XPB) (Homo sapiens, UniProt P19447)
T1 sequence (P19447 1-782): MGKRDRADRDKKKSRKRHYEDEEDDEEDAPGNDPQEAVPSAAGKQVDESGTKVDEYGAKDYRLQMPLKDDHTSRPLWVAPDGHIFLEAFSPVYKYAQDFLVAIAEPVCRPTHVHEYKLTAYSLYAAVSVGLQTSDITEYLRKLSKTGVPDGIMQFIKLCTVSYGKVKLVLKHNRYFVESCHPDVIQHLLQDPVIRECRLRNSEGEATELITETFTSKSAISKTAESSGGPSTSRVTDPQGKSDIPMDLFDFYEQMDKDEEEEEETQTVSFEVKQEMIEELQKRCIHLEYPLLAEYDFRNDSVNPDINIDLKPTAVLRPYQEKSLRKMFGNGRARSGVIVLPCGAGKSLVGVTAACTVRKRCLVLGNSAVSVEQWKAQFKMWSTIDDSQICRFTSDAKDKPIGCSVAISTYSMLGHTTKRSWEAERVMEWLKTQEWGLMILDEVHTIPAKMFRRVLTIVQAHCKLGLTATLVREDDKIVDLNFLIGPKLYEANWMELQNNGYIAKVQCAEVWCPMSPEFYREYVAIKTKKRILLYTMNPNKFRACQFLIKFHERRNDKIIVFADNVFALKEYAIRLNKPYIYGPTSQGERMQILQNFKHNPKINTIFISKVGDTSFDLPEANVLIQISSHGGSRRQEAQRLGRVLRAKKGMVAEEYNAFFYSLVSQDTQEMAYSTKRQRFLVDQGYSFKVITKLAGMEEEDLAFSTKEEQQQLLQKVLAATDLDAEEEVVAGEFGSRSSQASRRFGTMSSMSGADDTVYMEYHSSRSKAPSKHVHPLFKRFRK
Assay: live-cell covalent labelling, click to TAMRA, in-gel fluorescence
Assay type: cell-based

triptolide-alkyne [TL-alk] gave an EC50 of 92.6 nM.
